EP0852225B1, “FIBRINOGEN RECEPTOR ANTAGONISTS AND MEDICINAL PREPARATIONS CONTAINING THE SAME AS THE ACTIVE INGREDIENT” (NIPPON STEEL CORPORATION, priority 1996, dated 1997)

Tested on: Human Platelet Aggregation
Test: Measurement of in vitro human platelet aggregation using PRP (collagen-induced, aggregometer light transmittance)
Format: cell-based
Conditions: platelet aggregation inhibition in human PRP; collagen final concentration 5 µg/ml; 37°C
Procedure: Healthy male volunteers who had not taken any medicines for at least two weeks were selected as subjects. Blood was collected from the forearm vein of each subject on an empty stomach using a #19 needle and a plastic syringe preliminarily charged with 1/10 volume of a 3.8% sodium citrate solution. Immediately after the blood collection, the syringe was shaken gently to mix the blood with the sodium citrate solution. The mixed blood was centrifuged (1100 rpm, 250 g) at room temperature for 15 minutes and the rotation was stopped without applying the brake. Then, the supernatant was collected with a graduated pipette to obtain platelet-rich plasma (PRP). The PRP was stored at room temperature. The blood remaining after the centrifugation was further centrifuged (3500 rpm, 1500 g) at room temperature for 15 minutes and the rotation was stopped without applying the brake. The supernatant was collected to obtain platelet-poor plasma (PPP). After the preparation of the PRP, the number of platelets was counted and only samples containing 2 x 10^8 or more of platelets per milliliter were subjected to the following experiments.
Platelet aggregation was measured using an 8-channel aggregometer (Hematracer, Nikoh Bioscience, Tokyo, Japan) on the basis of the change in light transmittance through the PRP as follows.
First, the PPP and PRP (each 200 µl) were placed in glass cuvettes and incubated at 37°C. Thereafter, the transmittance was measured. The transmittance of the PPP was defined as 100% and that of the PRP as 0%.
Then, 10 µl of physiological saline or a sample-containing physiological saline was added to the PRP and incubated at 37°C for one minute. A collagen solution (10 µl) at a concentration of 100 µg/ml was added to the PRP-containing solution (final concentration: 5 µg/ml) to induce aggregation and thereafter the transmittance was measured over 7 minutes. After the aggregation with collagen and ADP was confirmed, only those samples in which the maximum percent aggregation with collagen was at least 70% were subjected to the experiment.
The sample was dissolved in physiological saline to give a concentration of 2.2 x 10^-2 M and a 2-fold dilution series was prepared for use in the experiments. The samples insoluble in the physiological saline were dissolved in physiological saline containing 10% DMSO (dimethyl sulfoxide).
The results were calculated as follows: Percent Aggregation inhibition =(Maximum percent aggregation upon the addition of sample)/(Maximum percent aggregation upon the addtion of physiological saline) [formula]
A graph was constructed by plotting the percent of aggregation inhibition against the sample concentration and the concentration at which the aggregation was inhibited by 50% (IC50) was calculated from the graph.

Compound	IC50 [nM]
CCC(NC(=O)c1ccc(C(=N)N2CCOCC2)cc1)C(C)(C)C(=O)N1CCC(CC(=O)O)CC1 (stereo not drawn) [Example 2, N-(N-(9-(4-morpholinoimidoyl)benzoyl)-β-ethyl-α,α-dimethyl-β-alanyl)-4-piperidineacetic acid]	220
CCC(NC(=O)c1ccc(C(=N)N2CCOCC2)cc1F)C(C)(C)C(=O)N1CCC(CC(=O)O)CC1 (stereo not drawn) [Example 4, N-{N-(4-(4-morpholinoimidoyl)-2-fluorobenzoyl)-β-ethyl-α,α-dimethyl-β-alanyl)-4-piperidineacetic acid]	150
CCC(NC(=O)c1ccc(C(=N)N2CCCCC2)cc1F)C(C)(C)C(=O)N1CCC(CC(=O)O)CC1 (stereo not drawn) [Example 8, N-(N-(4-(1-piperidinoimidoyl)-2-fluorobenzoyl)-β-ethyl-α,α-dimethyl-β-alanyl)-4-piperidineacetic acid]	220
CCC(NC(=O)c1ccc(C(=N)N2CCCC2)cc1F)C(C)(C)C(=O)N1CCC(CC(=O)O)CC1 (stereo not drawn) [Example 10, N-(N-(4-(1-pyrrolidinoimidoyl)-2-fluorobenzoyl)-β-ethyl-α,α-dimethyl-β-alanyl)-4-piperidineacetic acid]	87
CCC(NC(=O)c1ccc(C(=N)N2CCC(=O)CC2)cc1F)C(C)(C)C(=O)N1CCC(CC(=O)O)CC1 (stereo not drawn) [Example 12, N-(N-(4-(1-4-piperidonoimidoyl)-2-fluorobenzoyl)-β-ethyl-α,α-dimethyl-β-alanyl)-4-piperidineacetic acid]	120
CCC(NC(=O)c1ccc(C(=N)N2CCC(O)CC2)cc1F)C(C)(C)C(=O)N1CCC(CC(=O)O)CC1 (stereo not drawn) [Example 14, N-(N-(4-(4-hydroxy-1-piperidinoimidoyl)-2-fluorobenzoyl)-β-ethyl-α,α-dimethyl-β-alanyl)-4-piperidineacetic acid]	52
CCC(NC(=O)c1ccc(C(=N)N2CCSC2)cc1F)C(C)(C)C(=O)N1CCC(CC(=O)O)CC1 (stereo not drawn) [Example 16, N-(N-(4-(3-thizolidinoimidoyl)-2-fluorobenzoyl)-β-ethyl-α,α-dimethyl-β-alanyl)-4-piperidineacetic acid]	43
CCC(NC(=O)c1ccc(C(=N)N2CCCCCC2)cc1F)C(C)(C)C(=O)N1CCC(CC(=O)O)CC1 (stereo not drawn) [Example 18, N-(N-(4-(1-hexamethyleneiminoimidoyl)-2-fluorobenzoyl)-β-ethyl-α,α-dimethyl-β-alanyl)-4-piperidineacetic acid]	230
CCC(NC(=O)c1ccc(C(=N)N2CCSCC2)cc1F)C(C)(C)C(=O)N1CCC(CC(=O)O)CC1 (stereo not drawn) [Example 20, N-(N-(4-(N-thiomorpholinoimidoyl)-2-fluorobenzoyl)-β-ethyl-α,α-dimethyl-β-alanyl)-4-piperidineacetic acid]	120
CCC(NC(=O)c1ccc(C(=N)N2CCN(C)CC2)cc1F)C(C)(C)C(=O)N1CCC(CC(=O)O)CC1 (stereo not drawn) [Example 22, N-(N-(4-(4-methyl-1-piperazinoimidoyl)-2-fluorobenzoyl)-β-ethyl-α,α-dimethyl-β-alanyl)-4-piperidineacetic acid]	69
CCC(NC(=O)c1ccc(C(=N)N2CCN(c3ccccc3)CC2)cc1F)C(C)(C)C(=O)N1CCC(CC(=O)O)CC1 (stereo not drawn) [Example 24, N-(N-(4-(4-phenyl-1-piperazinoimidoyl)-2-fluorobenzoyl)-β-ethyl-α,α-dimethyl-β-alanyl)-4-piperidineacetic acid]	57
CCC(NC(=O)c1ccc(C(=N)N2CCN(c3ccc(F)cc3)CC2)cc1F)C(C)(C)C(=O)N1CCC(CC(=O)O)CC1 (stereo not drawn) [Example 26, N-(N-(4-(4-(4-fluorophenyl)-1-piperazinoimidoyl)-2-fluorobenzoyl)-β-ethyl-α,α-dimethyl-β-alanyl)-4-piperidineacetic acid]	87
CC(C)(C(=O)N1CCC(CC(=O)O)CC1)C(NC(=O)c1ccc(C(=N)N2CCOCC2)cc1)c1ccccc1 (centres unmarked) [Example 28]	240

Tested on: not listed separately
Test: Oral administration test: time course of the concentration in plasma after oral administration
Format: in vivo
Conditions: male SD rats, 10 mg per kg, 30, 60 and 120 minutes after administration, HPLC, mean of three rats
Procedure: Male SD rats which had been starved from the previous day were used in this experiment. Two test substances, the compounds of Example 4 and Comparative Example 1, were dissolved in distilled water and administered into the stomach of rats with an oral probe. Each compound was administered to each rat in an amount of 10 mg per kg of body weight. Blood samples were collected 30, 60 and 120 minutes after the administration. The concentration of each compound which was in an active state (i.e., free carboxylic acid) in plasma was determined by HPLC.
In this Figure, the horizontal axis represents the time after the oral administration and the vertical axis represents the concentration of the active form of each compound in plasma. Each point represents the mean value for three rats and the standard error. […] When the peak values at 30 minutes after the oral administration are compared, the difference was about 10 times as great.

Compound	concentration of the active form (free carboxylic acid) in plasma, compared with Comparative Example 1
CCC(NC(=O)c1ccc(C(=N)N2CCOCC2)cc1F)C(C)(C)C(=O)N1CCC(CC(=O)O)CC1 (stereo not drawn) [Example 4, N-{N-(4-(4-morpholinoimidoyl)-2-fluorobenzoyl)-β-ethyl-α,α-dimethyl-β-alanyl)-4-piperidineacetic acid]	significantly higher concentration in plasma than the compound of Comparative Example 1 at every point of determination
